According to patent publication US20080114020A1, “Difluoro-Substituted Imidazopyridines” (Altana Pharma AG, priority 2004, published 2008):

System: pentagastrin-stimulated acid secretion of the perfused rat stomach
Conditions: anesthetized CD rat, female; dose 1 μmol/kg i.d. (intraduodenal); pentagastrin 1 μg/kg i.v. infusion
Experimental: The abdomen of anesthetized rats (CD rat, female, 200-250 g; 1.5 g/kg i.m. urethane) was opened after tracheotomy by a median upper abdominal incision and a PVC catheter was fixed transorally in the esophagus and another via the pylorus such that the ends of the tubes just projected into the gastric lumen. The catheter leading from the pylorus led outward into the right abdominal wall through a side opening.
After thorough rinsing (about 50-100 ml), warm (37° C.) physiological NaCl solution was continuously passed through the stomach (0.5 ml/min, pH 6.8-6.9; Braun-Unita I). The pH (pH meter 632, glass electrode EA 147; φ=5 mm, Metrohm) and, by titration with a freshly prepared 0.01 N NaOH solution to pH 7 (Dosimat 665 Metrohm), the secreted HCl were determined in the effluent in each case collected at an interval of 15 minutes.
The gastric secretion was stimulated by continuous infusion of […] (=1.65 ml/h) of i.v. pentagastrin (left femoral vein) about 30 min after the end of the operation (i.e. after determination of 2 preliminary fractions). The substances to be tested were administered intraduodenally in a 2.5 ml/kg liquid volume 60 min after the start of the continuous pentagastrin infusion. The body temperature of the animals was kept at a constant 37.8-38° C. by infrared irradiation and heat pads (automatic, stepless control by means of a rectal temperature sensor).

Row | Compound | Inhibition of acid secretion (%)
1 | Cc1nc2c3c(ccn2c1C)C(c1ccccc1)C(O)C(F)(F)O3 [Example 1, (8R,9R)-7,7-Difluoro-2,3-dimethyl-8-hydroxy-9-phenyl-7H-8,9-dihydro-pyrano[2,3-c]imidazo[1,2-a]pyridine] | >85%
2 | CC(=O)OC1C(c2ccccc2)c2ccn3c(C)c(C)nc3c2OC1(F)F [Example 2, (8R,9R)-8-Acetoxy-7,7-difluoro-2,3-dimethyl-9-phenyl-7H-8,9-dihydro-pyrano[2,3-c]imidazo[1,2-a]pyridine] | >85%
3 | COCC(=O)O[C@@H]1[C@@H](c2ccccc2)Oc2c(ccn3c(C)c(C)nc23)C1(F)F [Example 8, (8R,9R)-7,7-Difluoro-2,3-dimethyl-8-(2-methoxy-acetyloxy)-9-phenyl-7H-8,9-dihydro-pyrano[2,3-c]imidazo[1,2-a]pyridine] | >85%
4 | Cc1nc2c3c(ccn2c1C)C(c1ccccc1)C(OC(=O)CN(C)C)C(F)(F)O3 [Example 9, (8R,9R)-7,7-Difluoro-2,3-dimethyl-8-(2-dimethylamino-acetyloxy)-9-phenyl-7H-8,9-dihydro-pyrano[2,3-c]imidazo[1,2-a]pyridine] | >85%
5 | COC(=O)O[C@@H]1[C@@H](c2ccccc2)Oc2c(ccn3c(C)c(C)nc23)C1(F)F [Example 10, (8R,9R)-7,7-Difluoro-2,3-dimethyl-8-(methoxy-carbonyloxy)-9-phenyl-7H-8,9-dihydro-pyrano[2,3-c]imidazo[1,2-a]pyridine] | >85%
